Laboratory results from patent publication US5114936A, “6,7-dihydro-3-phenyl-1,2-benzisoxazol-4(5H)-ones and -ols, compositions and pharmaceutical use” (Hoechst-Roussel Pharmaceuticals Incorporated, priority 1991, dated 1992).
Structures can show the parent of a compound that is named as a salt.

test system: phenyl-p-quinone writhing; assay: phenyl-p-quinone writhing assay (analgesia); assay type: in vivo, mice; conditions: Mus musculus, sc; s.c; read-out: ED50 Inhibition of Writhing
From the text: Exptl. Biol. Med. 95, 729 (1957)]

SMILES	ED50 [mg/kg]
COc1ccccc1N1CCN(CCCC2CCc3onc(-c4ccccc4)c3C2=O)CC1 (stereo not drawn) [Example 14, 6,7-Dihydro-5-[3-(4-(2-methoxyphenyl)-1-piperazinyl)-propyl]-3-phenyl-1,2-benzisoxazol-4(5H)-one dihydrochloride]	5.18
O=C(c1ccc(F)cc1)C1CCN(CCCC2CCc3onc(-c4ccccc4)c3C2=O)CC1 (stereo not drawn) [Example 15, 6,7-Dihydro-5-[3-(4-(4-fluorobenzoyl)-1-piperidinyl)-propyl]-3-phenyl-1,2-benzisoxazol-4(5H)-one hydrochloride]	3.99
CCC(=O)O[C@](Cc1ccccc1)(c1ccccc1)[C@H](C)CN(C)C [propoxyphene, reference compound]	3.9

test system: apomorphine climbing; assay: Climbing Mice Assay (antagonism of apomorphine-induced climbing); assay type: in vivo, mice (CK-1 male mice); conditions: Mus musculus; ip; apomorphine 1.5 mg/kg subcutaneously
Description: Antipsychotic activity is determined in the Climbing Mice Assay by a method similar to that described by P. Protais, et al., Psychopharmacol., 50, 1 (1976) and B. Costall, Eur. J. Pharmacol., 50, 39 (1978).
The subject CK-1 male mice (23-27 grams) are group-housed under standard laboratory conditions. The mice are individually placed in wire mesh stick cages (4"×4"×10") and are allowed one hour for adaptation and exploration of the new environment. Then apomorphine is injected subcutaneously at 1.5 mg/kg, a dose causing climbing in all subjects for 30 minutes.
Compounds to be tested for antipsychotic activity are injected intraperitoneally or given orally at various time intervals, e.g. 30 minutes, 60 minutes, etc. prior to the apomorphine challenge at a screening dose of 10-60 mg/kg.
For evaluation of climbing, 3 readings are taken at 10, 20 and 30 minutes after apomorphine administration according to the following scale:
4 paws on bottom (no climbing)
2 paws on the wall (rearing)
4 paws on the wall (full climb)
Mice consistently climbing before the injection of apomorphine will be discarded.
With full-developed apomorphine climbing, the animals are hanging on to the cage walls, rather motionless, over longer periods of time. By contrast, climbs due to mere motor stimulation usually only last a few seconds.
The climbing scores are individually totaled (maximal score: 6 per mouse over 3 readings) and the total score of the control group (vehicle intraperitoneally-apomorphine subcutaneously) is set to 100%. ED50 values with 95% confidence limits, calculated by a linear regression analysis, of some of the compounds of the instant invention as well as a standard antipsychotic agent are presented in Table I.

SMILES	ED50 [mg/kg]
Cl.O=C1c2c(-c3ccccc3)noc2CCC1CCCN1CCC(c2ccc(F)cc2)CC1 (stereo not drawn) [6,7-dihydro-5-[3-(4-(4-fluorophenyl)-1-piperidinyl)-propyl]-3-phenyl-1,2-benzisoxazol-4(5H)-one hydrochloride]	6.36
COc1ccccc1N1CCN(CCCC2CCc3onc(-c4ccccc4)c3C2=O)CC1 (stereo not drawn) [Example 14, 6,7-Dihydro-5-[3-(4-(2-methoxyphenyl)-1-piperazinyl)-propyl]-3-phenyl-1,2-benzisoxazol-4(5H)-one dihydrochloride]	15
Cl.O=C(c1ccc(F)cc1)C1CCN(CCCC2CCc3onc(-c4ccccc4F)c3C2=O)CC1 (stereo not drawn) [Example 19, 6,7-Dihydro-5-[3-(4-(4-fluorobenzoyl)-1-piperidinyl)-propyl]-3-(2-fluorophenyl)-1,2-benzisoxazol-4(5H)-one hydrochloride]	2.9
O=C(c1ccc(F)cc1)C1CCN(CCCC2CCc3onc(-c4ccc(F)cc4)c3C2=O)CC1 (stereo not drawn) [Example 20, 6,7-Dihydro-5-[3-(4-(4-fluorobenzoyl)-1-piperidinyl)-propyl]-3-(4-fluorophenyl)-1,2-benzisoxazol-4(5H)-one hydrochloride]	6.2
O=C(c1ccc(F)cc1)C1CCN(CCCC2CCc3onc(-c4cccc(F)c4)c3C2=O)CC1 (stereo not drawn) [Example 26, 6,7-Dihydro-5-[3-(4-(4-fluorobenzoyl)-1-piperidinyl)-propyl]-3-(3-fluorophenyl)-1,2-benzisoxazol-4(5H)-one hydrochloride]	5.7
CN1CCN(C2=Nc3cc(Cl)ccc3Nc3ccccc32)CC1 [clozapine, reference compound]	9
